Experimental data: patent publication US20260176269A1, “ANTICOAGULANT HEPARIN OLIGOSACCHARIDE PHENYL-LINKED DIMER, PREPARATION METHOD THEREFOR AND USE THEREOF” (SHANDONG UNIVERSTIY, priority 2022, published 2026)

Columns and labels:
Factor Xa [1] = experiment: neutralization of anti-Factor Xa activity by protamine sulfate, chromogenic substrate method; assay type: biochemical; conditions: different concentrations of protamine sulfate
Description: Therefore, the phenyl-linked heparin hexasaccharide dimer I-1-1 prepared by the present disclosure is a novel heparin analog whose anticoagulant activity may be neutralized by protamine sulfate.

Factor Xa [2] = experiment: anti-Factor Xa titer against low molecular weight heparin standard curve, chromogenic substrate method; assay type: biochemical
Factor II a = experiment: anti-Factor IIa activity, chromogenic substrate method; assay type: biochemical; conditions: data not shown
[3] = in vivo pharmacokinetics after subcutaneous injection in rats; conditions: rat
Protocol: Both Fondaparinux and the phenyl-linked heparin hexasaccharide dimer I-1-1 were injected subcutaneously into Wister male rats weighing 200±20 g (n≥3) at a dose of 300 IU/kg. Blood samples were collected from the jugular vein of rats at 0, 0.5, 0.75, 1, 1.25, 1.5, 1.75, 2, 2.5, 3, 4, 8, 12 and 24 hours respectively (based on the actual blood collection time). After the blood samples were centrifuged at 5000 r/min for 15 minutes, the supernatant was taken to determine the anti-Factor Xa activity by the above method, and the residual concentrations of Fondaparinux and the phenyl-linked heparin hexasaccharide dimer I-1-1 in rats were calculated. The drug concentration vs. time curve was drawn.

Factor Xa [4] = experiment: anti-Factor Xa activity, chromogenic substrate assay; assay type: biochemical

t1/2 ([3]; male, Wister, in vivo, sc) [h] | IC50 value of the anti-Factor Xa activity (Factor Xa [4]; mass concentration) [µg/mL] | IC50 (Factor Xa [4]; molar concentration) [nM] | half-life ([3]; male, Wister, plasma, sc, 300 IU/kg) [h] | SMILES | neutralization of in vitro anti-Factor Xa activity by protamine sulfate (Factor Xa [1]) | titer (Factor Xa [2]) | anti-Factor IIa activity (Factor II a) | in vivo half-life (comparison in words) ([3]; in vivo)
2.269 | 0.02815 | 7.2 | – | O=C(O)C1OC(OC2C(COS(=O)(=O)O)OC(OC3C(C(=O)O)OC(OC4C(COS(=O)(=O)O)OC(OC5C(C(=O)O)OC(Oc6ccc(OC7OC(C(=O)O)C(OC8OC(COS(=O)(=O)O)C(OC9OC(C(=O)O)C(OC%10OC(COS(=O)(=O)O)C(OC%11OC(C(=O)O)C(OC%12OC(COS(=O)(=O)O)C(O)C(O)C%12NS(=O)(=O)O)C(O)C%11O)C(OS(=O)(=O)O)C%10NS(=O)(=O)O)C(O)C9OS(=O)(=O)O)C(O)C8NS(=O)(=O)O)C(O)C7O)cc6)C(O)C5O)C(NS(=O)(=O)O)C4O)C(OS(=O)(=O)O)C3O)C(NS(=O)(=O)O)C2OS(=O)(=O)O)C(O)C(O)C1OC1OC(COS(=O)(=O)O)C(O)C(O)C1NS(=O)(=O)O (centres unmarked) [Compound I-1-1] | almost completely reversed | 1,121.5 IU/mg | no significant anti-Factor Ha activity | comparable to that of commercially available Fondaparinux
– | – | – | 2.17 | CO[C@H]1O[C@H](COS(=O)(=O)O)[C@@H](O[C@@H]2O[C@@H](C(=O)O)[C@@H](O[C@H]3O[C@H](COS(=O)(=O)O)[C@@H](O[C@@H]4O[C@H](C(=O)O)[C@@H](O[C@H]5O[C@H](COS(=O)(=O)O)[C@@H](O)[C@H](O)[C@H]5NS(=O)(=O)O)[C@H](O)[C@H]4O)[C@H](OS(=O)(=O)O)[C@H]3NS(=O)(=O)O)[C@H](O)[C@H]2OS(=O)(=O)O)[C@H](O)[C@H]1NS(=O)(=O)O [Fondaparinux, reference compound] | – | – | – | –
